Substitutions are numbered along the chain they refer to.
Assays:
Format in all cases: cell-based
[1] = target: T1, GlyR α1^F100A (Homo sapiens, UniProt P23415, F128A); assay: Whole-cell recording of substituted GlyR in HEK cells
T1 sequence (P23415 29-457 F128A): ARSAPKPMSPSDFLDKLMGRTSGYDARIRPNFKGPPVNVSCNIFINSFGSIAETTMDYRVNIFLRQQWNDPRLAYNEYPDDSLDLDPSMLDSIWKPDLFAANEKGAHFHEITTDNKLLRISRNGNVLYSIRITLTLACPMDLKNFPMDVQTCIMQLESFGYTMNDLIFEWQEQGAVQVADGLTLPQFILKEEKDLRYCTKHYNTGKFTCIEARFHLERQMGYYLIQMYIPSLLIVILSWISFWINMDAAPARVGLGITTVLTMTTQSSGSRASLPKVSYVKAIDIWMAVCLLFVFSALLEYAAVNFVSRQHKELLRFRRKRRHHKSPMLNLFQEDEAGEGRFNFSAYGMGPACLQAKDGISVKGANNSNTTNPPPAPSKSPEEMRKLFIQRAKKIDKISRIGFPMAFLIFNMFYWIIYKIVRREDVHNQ

[2] = target: T2, GlyR α1^L134A, E157A (Homo sapiens, UniProt P23415, E185A/L162A); assay: as above
T2 sequence (P23415 29-457 L162A/E185A): T1 sequence (P23415 29-457 F128A) with A100F, L134A, E157A

[3] = target: T3, GlyR α1^L118A (Homo sapiens, UniProt P23415, L146A); assay: as above
T3 sequence (P23415 29-457 L146A): T1 sequence (P23415 29-457 F128A) with A100F, L118A

[4] = target: T4, GlyR α1 WT (Homo sapiens, UniProt P23415); assay: Whole-cell recording of wild-type GlyR α1 expressed in HEK cells
T4 sequence (P23415 29-457): T1 sequence (P23415 29-457 F128A) with A100F

[5] = target: T5, GlyR α1^L98A (Homo sapiens, UniProt P23415, L126A); assay: Whole-cell recording of substituted GlyR in HEK cells; details: α1^L98A
T5 sequence (P23415 29-457 L126A): T1 sequence (P23415 29-457 F128A) with L98A, A100F

[6] = target: T6, GlyR α1^L117A (Homo sapiens, UniProt P23415, L145A); assay: as above
T6 sequence (P23415 29-457 L145A): T1 sequence (P23415 29-457 F128A) with A100F, L117A

[7] = maximal Zn^2+ response as percentage of maximal glycine response in same cell
[8] = read-out: Zn^2+ Activation EC50, direct activation without glycine
[9] = read-out: Zn^2+ Inhibition IC50, modulation of EC50 glycine currents
[10] = direct activation without glycine

## NCC(=O)O [Glycine, glycine]
[1]
  Glycine Imax: 4.5 ± 0.7 nA
[1]; Hill slope
  Glycine nH: 1.8 ± 0.2
[2]; α1^L134A with extra mutation E157A vs α1^L134A
  Reduction in sensitivity to glycine: 50 fold
[2]; α1^L134A, E157A
  Threshold concentration for glycine: > 100 µM
[3]
  Glycine Imax: 6.3 ± 0.7 nA
[3]; Hill slope
  Glycine nH: 3.00 ± 0.2
[4]
  Glycine Imax: 6.8 ± 0.5 nA
[4]; Hill slope
  Glycine nH: 2.7 ± 0.2
[5]
  Glycine Imax: 6.4 ± 0.5 nA
[5]; Hill slope
  Glycine nH: 1.9 ± 0.3
[6]
  Glycine Imax: 4.4 ± 0.7 nA
[6]; Hill slope
  Glycine nH: 1.67 ± 0.1

## [Zn+2] [Zn^2+]
[1]; Hill slope
  Zn^2+ Activation nH: 0.5 ± 0.1
[1]; [7]
  Zn^2+ Activation Relative efficacy (% Gly Imax): 7 ± 4 % Gly Imax
[1]; [8]
  EC50: 9.2 ± 0.6 µM
[1]; [9]
  IC50: > 1000 µM
[2]; α1^L134A, E157A vs α1^L134A
  Reduction in sensitivity to Zn^2+ activation: 3 fold
[3]; [10]
  Zn^2+ Activation EC50: None
[3]; [9]
  IC50: 10.3 ± 0.36 µM
[4]; [10]
  Zn^2+ Activation EC50: None
[4]; [9]
  IC50: 15 ± 2 µM
[5]; [8]
  EC50: 0.26 ± 0.08 µM
[5]; [9]
  IC50: > 1000 µM
[5]; Hill slope
  Zn^2+ Activation nH: 1.1 ± 0.2
[5]; [7]
  Zn^2+ Activation Relative efficacy (% Gly Imax): 49 ± 5 % Gly Imax
[6]; [10]
  Zn^2+ Activation EC50: None
[6]; [9]
  IC50: 13.3 ± 3.3 µM
